Columns and labels:
Laodelphax striatella = assay: Insecticidal test on Laodelphax striatella; type: in vivo; conditions: Laodelphax striatellus, 192 h, rice seedlings dipped 30 seconds, 3rd-instar larvae, 8 days after inoculation, read-out: insecticidal effect (corrected mortality rate) activity level
Source text: Insecticidal Test on Laodelphax striatella
The amide compounds represented by the general formula (I) of the present invention or salts thereof were separately dispersed in water and diluted to 500 ppm, and rice plant seedlings (variety: Nihonbare) were dipped in the agrochemical dispersions for 30 seconds. After air-dried, each seedling was put into a separate glass test tube and inoculated with ten 3rd-instar larvae of Laodelphax striatella, and then the glass test tubes were capped with cotton plugs. At 8 days after the inoculation, the numbers of surviving larvae and dead larvae were counted, the corrected mortality rate was calculated according to the formula shown below, and the insecticidal effect was evaluated according to the criteria of Test Example 1. Corrected mortality rate (%)=100×(Survival rate in a non-treatment plot−Survival rate in a treatment plot)/Survival rate in a non-treatment plot

Plutella xylostella = assay: Insecticidal test on Plutella xylostella; type: in vivo; conditions: 144 h, Chinese cabbage seedlings with laid eggs dipped about 30 seconds, 25° C., 6 days after dip treatment, read-out: insecticidal effect (corrected mortality rate, hatched larvae) activity level
Source text: Insecticidal Test on Plutella xylostella
Adults of Plutella xylostella were released onto Chinese cabbage seedlings and allowed to lay eggs thereon. At 2 days after the release of the adults, the Chinese cabbage seedlings with laid eggs were dipped for about 30 seconds in agrochemical formulations diluted to 500 ppm, each of which contained a different amide compound represented by the general formula (I) of the present invention as an active ingredient. After air-dried, the seedlings were kept in a thermostatic chamber at 25° C. At 6 days after the dip treatment, the number of hatched larvae per plot was counted, the mortality rate was calculated according to the formula shown below, and the insecticidal effect was evaluated according to the criteria of Test Example 1. This test was conducted in triplicate using 10 adults of Plutella xylostella per plot. Corrected mortality rate (%)=100×(Number of hatched larvae in a non-treatment plot−Number of hatched larvae in a treatment plot)/Number of hatched larvae in a non-treatment plot

Tetranychus urticae = assay: Acaricidal test on Tetranychus urticae; type: in vivo; conditions: 500 ppm, kidney bean leaf disks dipped about 30 seconds, female adults, two days later, 25° C.
Source text: Acaricidal Test on Tetranychus urticae

Meloidogyne incognita = assay: Nematicidal test on Meloidogyne incognita; type: in vivo; conditions: 500 ppm, 1 mL soil drench, potted melon seedlings, 8 days after inoculation
Protocol: Nematicidal Test on Meloidogyne incognita
Agrochemical formulations containing different amide compounds represented by the general formula (I) of the present invention or salts thereof as an active ingredient were separately diluted to a concentration of 500 ppm. The diluted agrochemical formulations (1 mL) were drenched into the soil around the foot of potted melon seedlings. At one day after the agrochemical treatment, an aqueous suspension of Meloidogyne incognita (about 500 worms/mL) was drenched into the soil for inoculation both in a treatment plot and in a non-treatment plot. The inoculated pots were kept in a greenhouse at 25° C. At 8 days after the inoculation, the root of each seedling was washed with water, the number of root nodules was counted, and the nematicidal effect was evaluated according to the following criteria.
A: the percentage of the number of root nodules relative to the non-treatment plot is 0%.
B: the percentage of the number of root nodules relative to the non-treatment plot is 1 to 10%.
C: the percentage of the number of root nodules relative to the non-treatment plot is 11 to 20%.
D: the percentage of the number of root nodules relative to the non-treatment plot is 21 to 50%.

[1] = test system: wheat powdery mildew fungus Erysiphe graminis; conditions: 200 ppm, foliar application to wheat plants, 10 mL per pot, 7 days after inoculation

SMILES | mortality at 500 ppm (Laodelphax striatella) | mortality at 500 ppm (Plutella xylostella) | acaricidal effect (corrected mortality rate) activity level (Tetranychus urticae) | nematicidal effect (number of root nodules relative to non-treatment plot) activity level (Meloidogyne incognita) | control effect (control rate, lesion area) activity level [1]
CCSc1cc(C(F)(F)F)ccc1C(=O)N(C)c1ccc(C(F)(F)F)cn1 [Compound 1-1, 2-(ethylthio)-N-methyl-4-(trifluoromethyl)-N-(5-(trifluoromethyl)pyridin-2-yl)benzamide] | 100% | 100% | D or higher | D or higher | 
CC[S+]([O-])c1cc(C(F)(F)F)ccc1C(=O)N(C)c1ccc(C(F)(F)F)cn1 (stereo not drawn) [Compound 1-2, 2-(ethylsulfinyl)-N-methyl-4-(trifluoromethyl)-N-(5-(trifluoromethyl)pyridin-2-yl)benzamide] | 100% | 100% |  | D or higher | 
CCS(=O)(=O)c1cc(C(F)(F)F)ccc1C(=O)N(C)c1ccc(C(F)(F)F)cn1 [Compound 1-3, 2-(ethylsulfonyl)-N-methyl-4-(trifluoromethyl)-N-(5-(trifluoromethyl)pyridin-2-yl)benzamide] | 100% | 100% |  | D or higher | 
CCN(C(=O)c1ccc(C(F)(F)F)cc1[S+]([O-])CC)c1ccc(C(F)(F)F)cn1 (stereo not drawn) [Compound 1-5] |  |  | D or higher | D or higher | D or higher
CCN(C(=O)c1ccc(C(F)(F)F)cc1S(=O)(=O)CC)c1ccc(C(F)(F)F)cn1 [Compound 1-6] |  |  | D or higher | D or higher | D or higher
CC[S+]([O-])c1cc(C(F)(F)F)ccc1C(=O)N(C)c1ccc(C(F)(F)F)cc1 (stereo not drawn) [Compound 3-2] |  |  | D or higher | D or higher | 
CCS(=O)(=O)c1cc(C(F)(F)F)ccc1C(=O)N(C)c1ccc(C(F)(F)F)cc1 [Compound 3-3] |  |  | D or higher | D or higher | D or higher
CCS(=O)(=O)c1cc(C(F)(F)F)ccc1C(=O)N(C)c1ccc(C(OC)(C(F)(F)F)C(F)(F)F)cc1 [Compound 3-6] |  |  | D or higher | D or higher | D or higher
CCSc1cc(C(F)(F)F)ccc1C(=O)N(C)c1ccc(C(C(F)(F)F)C(F)(F)F)cc1 [Compound 3-10] |  |  | D or higher | D or higher | 
CCS(=O)(=O)c1cc(C(F)(F)F)ccc1C(=O)N(C)c1ccc(C(C(F)(F)F)C(F)(F)F)cc1 [Compound 3-11] |  |  | D or higher | D or higher | 
CCSc1cc(C(F)(F)F)ccc1C(=O)N(C)c1ccc(Cl)cc1 [Compound 3-21] |  |  | D or higher | D or higher | 
